The conditions of assay [1]: 3,000 mg/day of L-Carnitine, 10 weeks, calorie restriction, increased physical activity; cited from earlier work.
For assay [2] the following is noted: 2,000 mg/day of L-Carnitine, 26 weeks, diet of 1,400 to 1,600 Kcal/day; cited from earlier work.
Assay [3] can be described thus: Comparative, open-label, controlled clinical trial of Orlistat/L-Carnitine (OL-CA) vs Orlistat (OL) and L-Carnitine (CA) in adults with overweight above 10 %. Format: in vivo, human. The note with it: end of treatment (12 weeks), n = 20 per group; for subjects who reached a normal weight: one capsule a day. The procedure:
A randomised, parallel, cross-over, prospective, open-label clinical trial.
Male and/or female subjects aged above 18 years, with overweight above 10 % their ideal weight.
• Group 1. Orlistat (OL) 120 mg, one capsule a day for 12 weeks. • Group 2. L-Carnitine (CA) 600 mg, one capsule a day for 12 weeks. • Group 3. Orlistat 120 mg and L-Carnitine 600 mg (OL-CA) in one capsule a day for 12 weeks.
• No other drug therapy was permitted for obesity and overweigh using any administration route during the clinical trial.
• Three treatment groups with random distribution 1:!;1
• Male and/or female subjects over 18 years of age. • Overweight above 10 % of their ideal weight or a Body Mass Index (BMI) of 28 kg/m2 or higher. • Poor response to previous diet therapy. • No participation in a clinical trial with a test drug or device for 30 days before the planned start of treatment. • Patients with or without risk factors associated with obesity (type 2 diabetes and systemic hypertension). • Following a nutritionally balanced and moderately hypocaloric plan containing about 30 % of calories from fat. • Women with child-bearing potential should use some contraceptive method during the treatment.
• Under 18 years of age • History of hypersensitivity to the components of the formula • Patients with any organ failure • Patients with a history of intolerance to lactose • Patients with a history of bowel malabsorption syndrome and cholestasis • Patients with suspected or diagnosed pancreatic disorder • Pregnant and/or nursing women • Diagnosed or suspected thyroid disorder • Patients currently on anticoagulants or cyclosporine and amiodarone.
Randomisation in to the study was stratified at a 1:1:1 ratio. The subjects were classified according to their body mass index. • Group A, 20 subjects with overweight, BMI of 25 to 29.9 kg/m2 • Group B, 20 subjects with grade 2 obesity, BMI of 30-39 kg/m2 • Group C, 20 subjects with grade 3 obesity BMI above 40 kg/m2 With regard to the BMI, the following values and interpretation are given • BMI 20 to 25 kg/m^2 = normal weight • BMI 25 to 29.9 kg/m^2 = Overweight • BMI 30 to 39 kg/m^2 - Grade 2 obesity • BMI above 40 kg/m^2 = Grade 3 obesity

The conditions of assay [4]: 15 mg/kg/day of L-Carnitine, 26 weeks, cited from earlier work.

The structures appear in SMILES notation.

`C[N+](C)(C)C[C@H](O)CC(=O)[O-]` [CA, L-Carnitine]: the “weight loss between the two groups” value in assay [1] is recorded as “No significant weight loss”. Also, in assay [2], the “weight loss or differences between the groups at the end of the study” value was “No significant weight loss or differences between the groups”. Also, in assay [3], the “patients reaching grade 2 obesity” value was 75%, the “patients reaching grade 2 obesity (number)” value stood at 15 subjects, the “subjects who documented overweight” value stood at 15% and the “subjects who documented overweight (number)” value worked out at 3 subjects. In addition, in assay [3], the “subjects who reached a normal weight (number)” value is given as “one”, the “subjects with grade 3 obesity” value turned out to be 5%, the “subjects with grade 3 obesity (number)” value is given as 1 subjects and the “subjects who reached a normal weight” value is recorded as 5%. Also, the “weight loss in the treatment group” value in assay [4] (restriction of 1,500 Kcal in diet, 60 subjects with obesity) is on record as 1.9 kg. The “weight loss (significance)” value in assay [4] is listed as “not significant”.

Consider `CCCCCCCCCCC[C@@H](C[C@@H]1OC(=O)[C@H]1CCCCCC)OC(=O)[C@H](CC(C)C)NC=O` [OL], for which, in assay [3], the “patients reaching grade 2 obesity” value was determined as 65%, the “patients reaching grade 2 obesity (number)” value worked out at 13 subjects, the “subjects who documented overweight” value is given as 10% and the “subjects who documented overweight (number)” value is 2 subjects. Also, in assay [3], the “subjects who reached a normal weight (number)” value was “one”, the “subjects with grade 3 obesity” value worked out at 20%, the “subjects with grade 3 obesity (number)” value was found to be 4 subjects and the “subjects who reached a normal weight” value stood at 5%.

The values above are taken from EP2478902A1, “PHARMACEUTICAL COMPOSITION FOR REDUCING WEIGHT AND METHOD FOR THE PRODUCTION THEREOF” (World-Trade Import-Export Wtie, AG, priority 2009, dated 2011).
